According to patent US20240251785A1, “SMALL MOLECULE ANTAGONISTS AND AGONISTS OF ARTHROPOD KININ RECEPTORS FOR PEST CONTROL” (The Texas A&M University System, priority 2021, published 2024):
pEC50, pIC50: −log10 of the molar value. Like-named read-outs stand apart in the source and are kept apart here.

What was measured:
[1] = molecular target: T1, recombinant tick kinin receptor (BMLK3) (Rhipicephalus microplus, UniProt Q9NHA4); assay: dual-addition intracellular calcium fluorescence assay, antagonist dose-response (inhibition of Rhimi-K-1 response in BMLK3 cells); type: cell-based; details: FIG. 6 SAR analysis; BMLK3 CHO-K1 cells stably expressing R. microplus kinin receptor; agonist Rhimi-K-1 (QFSPWGamide) 1 μmol L^−1
T1 construct: intracellular calcium fluorescence; agonist Rhimi-K-1 (QFSPWGamide)
T1 sequence (Q9NHA4 1-397): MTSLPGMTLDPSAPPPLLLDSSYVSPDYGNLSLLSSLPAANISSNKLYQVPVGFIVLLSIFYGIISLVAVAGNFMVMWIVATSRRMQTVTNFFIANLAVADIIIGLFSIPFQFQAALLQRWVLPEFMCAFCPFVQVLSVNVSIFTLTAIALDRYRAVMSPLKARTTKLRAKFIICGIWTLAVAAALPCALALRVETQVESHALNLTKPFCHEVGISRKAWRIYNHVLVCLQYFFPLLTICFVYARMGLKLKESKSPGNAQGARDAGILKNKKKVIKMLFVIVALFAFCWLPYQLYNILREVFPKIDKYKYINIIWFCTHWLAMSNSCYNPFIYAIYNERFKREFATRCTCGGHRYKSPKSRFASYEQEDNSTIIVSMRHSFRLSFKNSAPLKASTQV

[2] = system: isolated hindguts from females of the mosquito Aedes aegypti; assay: Hindgut contraction inhibition assay; details: for effect on hindgut contraction elicited by 1728, in words: compound 100 μmol L^−1, 5 min, then 1728 10 μmol L^−1, 1 h
Protocol: A mosquito colony of Ae. aegypti (Diptera: Culicidae), Liverpool strain, was maintained at 26.5° C. in a 16 h:8 h, light:dark photoperiod and provided with 10% sugar water, as described previously.^31 For the experiment, 3-5-day-old females were used, and the assay was modified based on our previous protocol.^33 A group of six female mosquitoes were cold-anesthetized on a Petri dish placed on ice, where both wings were removed. Mosquitoes became active when the plate was removed from the ice. The dissection dish was filled with Ringer's solution (150 mmol L^−1 NaCl, 25 mmol L^−1 HEPES, 3.4 mmol L^−1 KCl, 7.5 mmol L^−1 NaOH, 1.8 mmol L^−1 NaHCO3. 1 mmol L^−1 MgSO4, 1.7 mmol L^−1 CaCl2 and 5 mmol L^−1 glucose, pH 7.1) at room temperature. To dissect the hindgut of each mosquito, their head and thorax were removed with forceps, and the abdomen was submerged in the Ringer solution. The hindgut, ovaries and Malpighian tubules (MTs), and midgut were taken out by pulling the last segment of the abdomen under the Ringer solution. Then, the ovaries and the majority of the midgut were removed using scissors leaving the intact hindgut and MTs. The isolated tissue was transferred with forceps, gripping on the cuticle of the last segment, into a drop of 30 μL Ringer solution in a 12-well-plate (Greiner Bio-One®, 665,102). After six mosquitoes were dissected as a group, paraffin oil (1-2 mL) was added to each well to cover the saline. The cuticle of the last abdominal segment was drawn out of the Ringer solution into the oil for better observation of the hindgut contraction. The tissues were filmed using an Olympus SZ60 camera (Olympus America Inc., Center Valley, PA, USA) mounted on a dissecting microscope.
First, the hindgut basal contraction rate was recorded by filming each tissue for 60 s. […] After 5 min of incubation at room temperature, 15 μL kinin agonist analog 1728 solution (4×in Ringer solution) was added to the Ringer solution to reach a final concentration of 10 μmol L^−1. After 1 h of incubation, the tissue was filmed again for 60 s.
The contractible hindgut of mosquito consists of a funnel-shaped pylorus located immediately after the posterior midgut, followed by a long, coiled ileum, and a bulbous colon which contains the rectal pads, and a tapering rectal tube at the posterior end.^35 To analyze each video, the hindgut contraction number was counted by observing the contraction occurring at the junction between the pyloric sphincter and the most anterior ileum. The hindgut contraction rate was expressed as the number of contractions observed over 60 s. The fold change in contraction rate was calculated as the contraction rate estimated at 1 h post treatment divided by the basal rate estimated before the treatment with the chemicals. Each treatment was repeated with 30 female mosquitoes independently. All statistical analyses were done by PRISM software (v8, GraphPad). The differences in fold-change of the contraction rates among treatments were analyzed using the nonparametric Kruskal-Wallis test, followed by the Dunn's multiple comparison test. […].

[3] = system: Drosophila melanogaster renal organs; details: cited from earlier work
[4] = system: Rhodnius prolixus hindgut; details: cited from earlier work
[5] = system: vector-only (V/O) CHO-K1 cells; assay: Dose-response dual-addition calcium fluorescence assay on vector-only cells; type: cell-based
[6] = system: Human dermal fibroblasts (HDF) cells; assay: Cytotoxicity assay (resazurin); type: cell-based; details: Human dermal fibroblasts cells; tested at 20 μcool L^−1
[7] = molecular target: recombinant tick kinin receptor (BMLK3) (Rhipicephalus microplus, UniProt Q9NHA4); assay: Dose-response dual-addition calcium fluorescence assay on BMLK3 cells; type: cell-based; details: for pEC50: read-out: BMLK3 EC50
[8] = system: Aedes aegypti kinin receptor; assay: Calcium fluorescence assay on recombinant mosquito kinin receptor (IGKN G12 cell line); type: cell-based; details: for calcium response, in words: 100 μmol L^−1
Protocol: Three identified potent small molecule antagonists, and as control, a small molecule of very low antagonistic activity, all identified as part of this study, were tested in the calcium fluorescence assay, as above, for their activity on the cell line expressing the Aedes aegypti kinin receptor (IGKN G12 cell line). Receptor cloning, expression and clonal cell selection were as described previously.^3′ The recombinant tick kinin receptor (BMLK3) was tested simultaneously as positive control for the assay. BMLK3 and IGKN G12 cells were seeded in 96-well-plates (Greiner Bio-One®, B/C 655097) at a density of […] cells in 100 μL maintenance medium. Cells were prepared as described above for the calcium fluorescence assay; and each well was added with 90 μL assay buffer (see Section 2.3, HHBS plus dye efflux inhibitor).
For each compound three 10× concentrations (100, 300, 1000 μmol L^−1) were prepared and 10 μL of each was added manually into one well of each cell line for a final concentration of 10, 30 and 100 […]. After 5 min incubation at room temperature, a kinin receptor agonist peptide, the kinin agonist analog 1728^28 [[Aib]FF[Aib]WGamide, RoyoBiotech, Shanghai, China] was added manually (50 μL; 3× stock in HHBS) into each well for a final concentration of 1 μmol L^−1. The cellular calcium response in RFU was immediately recorded continuously for 60 s with 3 s intervals between reads using a Clariostar plate reader. The average RFU of these 20 reads represented the raw response to each treatment. Three independent replicates were run for each concentration and compound. The percentage of signal reduction with respect to the control that contained solvent and the kinin agonist analog 1728 was calculated using the average RFU registered for the treatment with each small molecule divided by the average RFU recorded for the control (100%). Data analyses were performed with the percentage reduction of the three independent replicates. PRISM (Graphpad, San Diego. CA, USA) was utilized for analysis and graphics.

[9] = Table 5 analogs, V/O cells, read-out: V/O antagonist IC50
[10] = summary of 36 validated antagonist hits, vector-only cell (V/O)

| Compound | pEC50 ([5]; Table 5 analogs, V/O cells) | pIC50 [5, 9] | pEC50 [5, 10] | pIC50 [5, 10] | HDF average % growth inhibition [6] | effect on hindgut contraction elicited by 1728, in words [2] | Inhibitory Efficacy at 12 μM ([7]; BMLK3 cells) | calcium response, in words [8] | other results |
| --- | --- | --- | --- | --- | --- | --- | --- | --- | --- |
| C1C1═CC═C(\C═C2\SC(═O)N(NS(═O)(═O)C3═CC═CC═C3)C2═S)C═C1 [SACC-0064443] | – | – | – | – | – | – | – | – | pIC50 [1]: 6.18 |
| [Aib]FF[Aib]WGamide [Molecule 1728] | – | – | – | – | – | – | – | – | increase of contraction rate, solvent plus 1728 group ([2]; 1728 10 μmol L^−1, solvent control of SACC-0412062 test (FIG. 8B), 1 h): two-fold; increase of fluid secretion from renal organs, in words ([3]; 10^−7 M range): not active; concentration active in diuretic assays [3]: 25 µM; concentration inducing hindgut contraction [4]: 10^−16 M |
| CCOc1cc(C=C2SC(=S)N(NS(=O)(=O)c3ccc(C)cc3)C2=O)ccc1O [SACC-0412066] | < 4.60 | 5.98 | < 4.60 | 5.98 | 2.02% | inhibited the increased rate of muscle contraction | 79.17% | elicited a strong calcium response | hindgut contraction rate, in words ([2]; compound 10 μmol L^−1, 1 h after 1728 (data not shown)): no increase in the hindgut contraction rate was observed; effect on hindgut contraction elicited by 1728, in words ([2]; listed as -10412066): significantly reduced the mobility of the hindgut; effect on hindgut contraction elicited by 1728, in words ([2]; listed as SACC-0412006): did not observe any increase in the hindgut contraction rate; inhibition of response compared to control ([8]; 30 μmol L^−1, 1728 1 μmol L^−1): 84% |
| Cc1ccc(S(=O)(=O)NN2C(=O)C(=Cc3ccc(C(=O)O)cc3)SC2=S)cc1 [SACC-0412064] | 4.76 | 5.83 | 4.76 | 5.83 | −7.067% | did not differ | 0.31% | did not antagonize the calcium response | activity type in dose-response assay, in words ([7]; BMLK3 cells, Rhimi-K-1 1 μmol L^−1): very weak partial antagonists; pEC50 ([7]; Table 5 analogs, first addition): 4.89; pIC50 ([7]; Table 5 analogs, second addition Rhimi-K-1 1 μmol L^−1, read-out: BMLK3 antagonist IC50): 6.93; pEC50 ([7]; summary of 36 validated antagonist hits, BMLK3 cells): 4.89; pIC50 ([7]; summary of 36 validated antagonist hits, BMLK3 cells, read-out: BMLK3 IC50): 6.93 |
